Patent US10407712B2, “Methods, compositions and kits for high throughput kinase activity screening using mass spectrometry and stable isotopes” (President and Fellows of Harvard College, priority 2008, dated 2019)

Legend:
[1] = system: Src family kinase; assay: Immunoblot of HEK293 cells treated with Src family kinase inhibitor; format: cell-based, human; conditions: asynchronously growing HEK293 cells
Experimental: FIG. 7E is a photograph of immunoblot data of lysates following treatment of asynchronously growing HEK293 cells with Sic family kinase (SFK) specific inhibitor SU6656 in starved or serum-fed cells.
Lysates were resolved on 4 to 12% SDS/PAGE, transferred onto Potran membranes (Whatman), blocked with 3% milk in TBST (Tris Buffered Saline Tween-20), incubated with 1:1,000 dilution of primary antibody at 4° C. overnight, washed, and incubated with a 1:5,000 dilution of second antibody (HRP-conjugated) with 3% milk in TBST for 1 h at room temperature. Bands were visualized with ECL solution (Roux et al. 2004 Proc Natl Acad Sci USA 101: 13489-[…]).
To further investigate whether this is a Src-dependent site in vivo, asynchronously growing HEK293 cells were treated with the specific Src family kinase inhibitor, Su6656. […] Further, MCF10A cells expressing v-Src:estrogen receptor (Reginato et al. 2005 Mol Cell Biol 25: 4591-4601) were treated with 1 μM 4-hydroxytamoxifen (4-HT) to activate v-Src as a function of time (FIG. 7F).

[2] = biological target: T1, EGFR (Homo sapiens, UniProt P00533); assay: In vitro kinase reaction of H5 peptide with purified EGFR; format: biochemical
T1 construct: epidermal growth factor (EGF) receptor (EGFR, 672-1210); purchased Cell Signaling Technology (Danvers, Mass.)
From the text: (§1) FIG. 7D is a line graph showing in vitro phosphorylation of peptide H5 (SEQ ID NO: 87) using each of purified Src and EGFR.
(§2) Purified human active kinases of Akt1 (full length), extracellular signal-regulated kinase 1 (ERK1, 1-379), mitogen-activated protein kinase kinase 1 (MEK1, 1-393), 90 kDa ribosomal S6 kinases 1 (RSK1, 1-735), cAMP-dependent protein kinase (PKA) catalytic subunit-α (PKA Cα, 1-351), protein kinase Cα (PKCα, full length), epidermal growth factor (EGF) receptor (EGFR, 672-1210), platelet-derived growth factor (PDGF) receptor α (PDGFRα, 550-1090), vascular endothelial growth factor (VEGF) receptor 1 (VEGFR1 784-1338), Src (full length), casein kinase 2 (CK2, full length), Aurora A (1-403), AMP-activated protein kinase α1β1γ1 (AMPK α1β1γ1, full length), glycogen synthase kinase-3α (GSK-3α, 1-483) and MAP/microtubule affinity-regulating kinase 1 (MARK 1, full length) were obtained from Cell Signaling Technology (Danvers, Mass.). Cdc2/cyclin B1 (full length) and insulin-like growth factor (IGF)-I receptor (IGFIR, 959-1367) were obtained from Upstate (Temecula, Calif.).
(§3) In order to identify the kinase that phosphorylates p55 (Tyr-199) lysates of serum-starved HEK293 cells were used for insulin, IGF and EGF stimulation. […]

[3] = system: HeLa cell lysates; assay: KAYAK in vitro kinase assay, lysates of asynchronous, G1/S- or G2/M-arrested HeLa cells; format: biochemical, human
Experimental: For cell cycle examples, HeLa cells were synchronized by double thymidine block for G1/S-arrest and by 0.2 μg/ml nocodazole for G2/M-arrest as described (Dephoure et al. 2008 Proc Natl Acad Sci USA 105: 10762-10767). Synchronization was confirmed by flow cytometry.
For cell lysis, the media were removed, and cells were washed with ice-cold phosphate-buffered saline (PBS) and lysed with ice-cold lysis buffer (10 mM K2HPO4 pH 7.5, 1 mM EDTA, 10 mM MgCl2, 50 mM β-glycerophosphate, 5 mM EGTA, 0.5% Nonidet P-40, 0.1% Brij 35, 0.1% deoxycholic acid, 1mM sodium orthovanadate, 1mM phenylmethyl-sulfonyl fluoride, 5 μg/ml leupeptin and 5 μg/ml pepstatin A). Lysates were centrifuged at 10,000 rpm for 10 min to remove cell debris, and clear supernatant was used for immunoblotting and in vitro kinase assays. Protein concentration was determined by Bradford assay (Biorad, Hercules, Calif.).
Peptides were synthesized, purified and quantified as described in Yu et al. 2009 Proc Natl Acad Sci USA 106: 11606-11611, hereby incorporated by reference herein in its entirety. Each substrate peptide (250 pmol) was mixed to a final concentration of 5 μM in the 50 μL reaction mixture. Alternatively, reactions were performed using 6 μg cell lysate aliquotes mixed to a final volume of 20 μl. Cell lysate or other kinase source was added to the substrate mixture in 25 mM Tris-Cl, pH 7.5, containing 5 mM ATP, 7.5 mM MgCl2, 0.2 mM EGTA, 7.5 mM β-glycerophosphate, 0.1 mM Na3VO4, and 0.1 mM DTT. The reaction was incubated at 25° C. for 60 min and then terminated by the addition of 100 μl of 1% trifluoroacetic acid (TFA) containing a known amount of an internal standard (typically 20 pmol). Alternatively, the reaction was incubated at 20° C. for 45 min before termination with TFA.
Forty-five individual in vitro kinase reaction mixtures were combined and desalted by using Sep-Pak C18 cartridge (Waters, Milford, Mass.). Phosphopeptides were enriched by immobilized metal ion chromatography (IMAC) with 20 μl of beads (Phos-Select iron affinity gel; Sigma, St. Louis, Mo.) and subsequently desalted by using Empore C18 solid phase extraction disks (3M, St. Paul, Minn.) as described previously.
Quantitation of the target peptide-internal standard ratios was performed by first constructing the extracted ion chromatogram for the most abundant charge state for each peptide using a ±10 ppm window. Chromatograms were integrated using Qual/Quan browser (Xcalibur 2.0.5, Thermo Fisher, San Jose, Calif.). Since the phosphorylated peptides generated from the in vitro kinase reactions were chemically identical to the internal standards, they were assumed to have the same ionization efficiency. Therefore, the amount of each phosphorylated peptide was calculated by direct ratio to the internal standard level.
To test substrate suitability in a multiplexed assay, the phosphorylation activities were measured using […] of each substrate peptide, 6 μg lysate, and 5 mM ATP in a plate format. Reactions proceeded for 60 minutes followed by acidification and the addition of isotope-labeled reference peptides. After pooling 45 samples, phosphopeptide enrichment was followed by liquid-chromatography (LC) separation and on-line peptide detection by high-resolution mass spectrometry.
In order to examine target peptides with cell-cycle-dependent phosphorylation, kinase activities in asynchronously growing HeLa cells were profiled and the profiles were compared with those of cells synchronized in G1/S and G2/M phase using a double-thymidine block and nocodazole arrest, respectively (FIG. 3B).

[4] = biological target: T2, Src (Homo sapiens, UniProt P12931); assay: In vitro kinase reaction of H5 peptide with purified Src; format: biochemical
T2 construct: Src (full length); purchased Cell Signaling Technology (Danvers, Mass.)
From the text: as §1, §2, §3

| Compound | level of phospho-Src (Tyr-416) [1] | level of phospho-p55 (Tyr-199) [1] | phosphorylation by EGFR [2] | increase in phosphorylation in G2/M ([3]; G2/M (nocodazole-arrested) HeLa lysate vs asynchronously growing cells) [fold] | G2/M: changed phosphorylation ([3]; G2/M phase compared to asynchronously growing HeLa cells) | phosphorylation by Src [4] |
| --- | --- | --- | --- | --- | --- | --- |
| CN(C)S(=O)(=O)c1ccc2c(c1)/C(=C/c1cc3c([nH]1)CCCC3)C(=O)N2 [Su6656, SU6656] | diminished | diminished | – | – | – | – |
| EYDRLYEEYTPFR (The sequence was designed and synthesized) [H5] | – | – | not | 13 | ++ (A change of more than +4 and −4 fold is indicated by “++” and “−−”, respectively.) | robust phosphorylation |
